We go through 20 molecules from patent US5728830A, “Farnesyltransferase inhibitor” (Kyowa Hakko Kogyo Co., Ltd., priority 1993, dated 1998).

The target in experiment [1] is T1, farnesyltransferase (FTase) (Bos taurus, UniProt P29702+P49355).
T1 construct: An extract of minced bovine brain was subjected to column chromatography on DEAE-Sephacel (Pharmacia); from tissue; host or cells: bovine brain
Put plainly: Farnesyltransferase Inhibitory Activity ([3H]SPA FTase assay, farnesylation of C-terminal peptide of lamin B). In kind it is biochemical. The settings on record: bovine brain crude enzyme. The procedure: Farnesyltransferase Inhibitory Activity
An extract of minced bovine brain was subjected to column chromatography on DEAE-Sephacel (Pharmacia). The active fraction was concentrated by ultrafiltration and dialyzed against a mixture of 20 mM Tris-HCl (pH 8.0), 50 mM NaCl, […], 1 mM dithiothreitol (DTT), and 0.2 mM phenylmethylsulfonyl fluoride (PMSF). The resulting dialysate was used as a crude enzyme liquid of farnesyltransferase (FTase). The measurement of activity was carried out by means of an FTase [^3 H]SPA enzyme assay kit (Amersham) using the enzyme obtained by the above method.

Another experiment has as its system BALB 3T3/H-ras cells. Description: Anticell Activity (growth inhibition of BALB 3T3 cells transformed by the oncogene H-ras, Giemsa staining). Type of experiment: cell-based. The settings on record: Mus musculus, 72 hours, read-out: IC50 Anti-BALB 3T3/H-ras Cell Activity. The procedure:
The anticell activity was measured using BALB 3T3 cells transformed by the oncogene H-ras (hereinafter referred to as BALB 3T3/H-ras cells).
BALB 3T3/H-ras cells were suspended in a DME medium (Nissui) containing 10% bovine fetal serum (hereinafter referred to as medium A) to a cell concentration of 3.0×10^4 cells/ml. Each well of a 96-well microtiter plate was inoculated with 0.1 ml of the cell suspension, and the system was cultured in a CO2 gas incubator at 37° C. for 20 hours. To each well was added 0.1 ml of a sample (test compound) diluted appropriately with medium A, followed by culturing in the CO2 gas incubator at 37° C. for 72 hours. The culture supernatant was removed, and the residue was washed once with physiological saline and treated with 0.1 ml of methanol for 10 minutes to immobilize the cells. The cells were stained with 0.1 ml of a Giemsa staining solution [Giemsa staining stock solution Merck Art9204 (Merck & Co., Inc.):physiological saline=1:10] for 5 minutes. The staining solution was removed, and the residue was washed once with 0.2 ml of water. The pigment was extracted with 0.2 ml of 0.1N hydrochloric acid, and the absorbance at 620 nm was measured with a microplate reader.

Experiment [2] relates to Candida albicans ATCC 10231. Description: Antibacterial Activity, agar dilution method, Candida albicans. Type of experiment: cell-based. The procedure:
(§1) The antibacterial activity was measured by the agar dilution method using a medium (pH 7) prepared by dissolving 3 g of Bacto-tryptone (Difco), 3 g of meat extract, 1 g of yeast extract, 1 g of glucose, and 16 g of agar in 1 liter of water. The antibacterial activity of Compounds I are expressed in terms of minimum growth inhibitory concentration (MIC).
CA; Candida albicans ATCC 10231
On the technique in general: Agar dilution tests growth on a series of plates holding different concentrations.

The subject of experiment [3] is Enterococcus faecium ATCC 10541. Description: Antibacterial Activity, agar dilution method, Enterococcus faecium. In kind it is cell-based. The procedure:
as §1
EF; Enterococcus faecium ATCC 10541

Experiment [4] concerns Bacillus subtilis No. 10707. Description: Antibacterial Activity, agar dilution method, Bacillus subtilis. In kind it is cell-based. Here is the method: as §1
BS; Bacillus subtilis No. 10707

Experiment [5] deals with isogenic tumor in K-BALB mice. Put plainly: Antitumor Activity on Isogenic Tumor System in K-BALB Mice. In kind it is in vivo. The settings on record: intraperitoneal, 5 consecutive days from 7th day after transplantation, BALB/c mouse. Here is the method: Antitumor Activity on Isogenic Tumor System in K-BALB Mice
The antitumor activity on an isogenic tumor system in K-BALB mice was measured according to the method described in Proc. Natl. Acad. Sci., 90, 2281 (1993). That is, an isogenic tumor in K-BALB mice was resected from a donor mouse, and a 2×2×2 (8) mm^3 tumor piece was transplanted to the subcutaneous site of the abdomen of a BALB/c mouse by means of a trocar. After the graft survival was confirmed on the 7th day from the transplantation, a test compound was intraperitoneally administered for 5 consecutive days from the same day. The longer diameter and shorter diameter of the tumor were measured with a sliding gauge, and the tumor volume was calculated according to the formula; (longer diameter)×(shorter diameter)^2 /2 [Cancer Chemother. Rep., Part III, 3, 1 (1972)]. The antitumor effect was evaluated in terms of T/C, the ratio of the tumor volume of a test compound-treated group (T) to that of an untreated group (C).

[6] abbreviates: ATCC10231, Candida albicans ATCC 10231, agar dilution, pH 7, read-out: MIC CA.
[7] abbreviates: Enterococcus faecium, ATCC10541, pH 7, read-out: MIC EF.
The mark [8] stands for this setting: Bacillus subtilis, NO.10707, pH 7, read-out: MIC BS.
The mark [9] stands for this setting: Bacillus subtilis No. 10707, agar dilution, pH 7, read-out: MIC BS.
[10] abbreviates: Candida albicans, ATCC10231, pH 7, read-out: MIC CA.

In brackets after ≈: the same amount, converted by molar mass. Read-outs that look alike come from different tables or passages of the source.

As for `O=C1C2SSC(C(=O)N2c2ccccc2)N1c1ccccc1` [Compound I-8], the IC50 in experiment [1] is 10 µM; in the experiment on BALB 3T3/H-ras cells, 0.7 µM.
As a reminder, the MIC is the least concentration at which growth counts as inhibited. In the case of `O=C(Oc1ccccc1)SC1C(=O)N(c2ccccc2)C(SC(=O)Oc2ccccc2)C(=O)N1c1ccccc1` (centres unmarked) [Compound I-10], the values for the IC50 (in experiment [1]; in the experiment on BALB 3T3/H-ras cells) were 25 µM and 1 µM, respectively. Moreover, in experiment [2] (setting [6]), the MIC is 42 µg/mL (≈ 73.6 µM).
For the molecule `CCOC(=O)SC1C(=O)N(c2ccccc2)C(SC(=O)OCC)C(=O)N1c1ccccc1` (centres unmarked) [Compound I-20], in experiment [1], the IC50 came to 45 µM.
With `CN1C(=O)C2(CO)SSC1(CO)C(=O)N2c1ccccc1` (centres unmarked) [Compound I-21], the IC50 in experiment [1] is 3 µM; with BALB 3T3/H-ras cells, 0.2 µM. In addition, the MIC in experiment [3] (setting [7]) was found to be 0.33 µg/mL (≈ 1.01 µM); in experiment [4] (setting [8]), 21 µg/mL (≈ 64.3 µM).
On to `COc1ccc(Br)cc1N1C(=O)C(SC(C)=O)N(C)C(=O)C1SC(C)=O` (centres unmarked) [Compound I-3], for which the IC50 in experiment [1] was 9 µM; in the experiment with BALB 3T3/H-ras cells it was 1.5 µM.
In the case of `CN1C(=O)C2SSC1C(=O)N2c1ccccc1` (centres unmarked) [Compound I-7], the values for the IC50 (in experiment [1]; with BALB 3T3/H-ras cells) were 60 µM and 0.2 µM, respectively.
Regarding `O=C(SC1C(=O)N(c2ccccc2)C(SC(=O)c2ccccc2)C(=O)N1c1ccccc1)c1ccccc1` (centres unmarked) [Compound I-9], the IC50 in experiment [1] came to 9 µM; with BALB 3T3/H-ras cells it was 3 µM.
`CC(=O)SC1C(=O)N(Cc2ccccc2)C(SC(C)=O)C(=O)N1Cc1ccccc1` (centres unmarked) [Compound I-6]: the IC50 in experiment [1] turned out to be 7 µM; in the experiment with BALB 3T3/H-ras cells, 4 µM. The MIC was 10 µg/mL (≈ 22.6 µM) in experiment [2] (setting [6]); 42 µg/mL (≈ 94.9 µM) in experiment [3] (ATCC10541, Enterococcus faecium ATCC 10541, agar dilution, pH 7, read-out: MIC EF); 21 µg/mL (≈ 47.5 µM) in experiment [4] (setting [9]).
Regarding `COc1ccccc1N1C(=O)C2(CO)SSC1(CO)C(=O)N2C` (centres unmarked) [Compound I-15], the results for the IC50 (in experiment [1]; in the experiment on BALB 3T3/H-ras cells) were 7 µM and 0.3 µM, respectively. Also, the results for the MIC in experiment [3] (setting [7]) and in experiment [4] (setting [8]) were 1.3 µg/mL (≈ 3.65 µM) and 0.33 µg/mL (≈ 0.926 µM), respectively.
`CN1C(=O)C2(COCc3ccccc3)SSC1(COCc1ccccc1)C(=O)N2c1ccccc1` (centres unmarked) [Compound I-12]: the IC50 in experiment [1] is 3 µM; with BALB 3T3/H-ras cells, 1 µM. Besides, the MIC in experiment [2] (setting [10]) and in experiment [4] (setting [8]) was 42 µg/mL (≈ 82.9 µM) each time.
As for `CN1C(=O)C2SSC1(CO)C(=O)N2c1ccccc1` (centres unmarked) [Compound I-13], the IC50 in experiment [1] was 5 µM; in the experiment with BALB 3T3/H-ras cells, 0.1 µM. Also, the MIC in experiment [2] (setting [10]) came out at 42 µg/mL (≈ 142 µM); in experiment [3] (setting [7]) it was 0.16 µg/mL (≈ 0.54 µM); in experiment [4] (setting [8]) it was 0.041 µg/mL (≈ 0.138 µM). In addition, the “T/C (ratio of tumor volume, treated to untreated)” value in experiment [5] (0.75 mg/kg) is 0.44.
On to `COCN1C(=O)C(SC(C)=O)N(COC)C(=O)C1SC(C)=O` (centres unmarked) [Compound I-5], for which the IC50 in experiment [1] stood at 8 µM; with BALB 3T3/H-ras cells, 0.4 µM.
With `CC(=O)SC1C(=O)N(c2ccccc2)C(SC(C)=O)C(=O)N1C` (centres unmarked) [Compound I-1], the IC50 in experiment [1] stood at 5 µM; in the experiment on BALB 3T3/H-ras cells, 0.2 µM.
Consider `CC(=O)SC1C(=O)N(c2ccccc2)C(SC(C)=O)C(=O)N1c1ccccc1` (centres unmarked) [Compound I-4], for which the values for the IC50 (in experiment [1]; in the experiment on BALB 3T3/H-ras cells) were 12 µM and 0.9 µM, respectively. The “T/C (ratio of tumor volume, treated to untreated)” value in experiment [5] (5.0 mg/kg) came out at 0.41.
Molecule `O=C1C2SSC(C(=O)N2Cc2ccccc2)N1Cc1ccccc1` [Compound I-19] displayed an IC50 in experiment [1] of 7 µM. The MIC in experiment [2] (setting [10]) was 2.6 µg/mL (≈ 7.29 µM); in experiment [3] (setting [7]), 83 µg/mL (≈ 233 µM); in experiment [4] (setting [8]), 83 µg/mL (≈ 233 µM).
Take `COc1ccccc1N1C(=O)C(SC(C)=O)N(C)C(=O)C1SC(C)=O` (centres unmarked) [Compound I-2]: the IC50 in experiment [1] is 9 µM; in the experiment on BALB 3T3/H-ras cells, 0.5 µM.
In the case of `COc1ccccc1N1C(=O)C2(CO)SSC1C(=O)N2C` (centres unmarked) [Compound I-14], the results for the IC50 (in experiment [1]; in the experiment on BALB 3T3/H-ras cells) were 6 µM and 0.3 µM, respectively. In addition, the MIC in experiment [4] (setting [8]) was 7.3 µg/mL (≈ 22.4 µM).
Take `COCN1C(=O)C(SC(=O)Oc2ccccc2)N(COC)C(=O)C1SC(=O)Oc1ccccc1` (centres unmarked) [Compound I-17]: the IC50 in experiment [1] was determined as 5 µM; with BALB 3T3/H-ras cells, 0.3 µM. In addition, the MIC in experiment [4] (setting [9]) amounted to 42 µg/mL (≈ 82.9 µM).
Regarding `CN1C(=O)C2SSC1(COCc1ccccc1)C(=O)N2c1ccccc1` (centres unmarked) [Compound I-11], the IC50 (in experiment [1]; in the experiment on BALB 3T3/H-ras cells) was 3 µM in each case. In addition, the minimal inhibitory concentration (MIC) was determined as 0.46 µg/mL (≈ 1.19 µM) in experiment [2] (setting [10]) and 7.3 µg/mL (≈ 18.9 µM) in experiment [4] (setting [8]).
Consider `CC(=O)OCC1(SC(C)=O)C(=O)N(c2ccccc2)C(SC(C)=O)C(=O)N1C` (centres unmarked) [Compound I-16], for which the values for the IC50 (in experiment [1]; in the experiment with BALB 3T3/H-ras cells) were 20 µM and 1.7 µM, respectively. The values for the MIC in experiment [3] (setting [7]) and in experiment [4] (setting [8]) were 42 µg/mL (≈ 98.9 µM) and 5.2 µg/mL (≈ 12.2 µM), respectively.
